According to patent US4943587A, “Hydroxamate derivatives of selected nonsteroidal antiinflammatory acyl residues and their use for cyclooxygenase and 5-lipoxygenase inhibition” (Warner-Lambert Company, priority 1988, dated 1990):

What was measured:
5-Lipoxygenase = target: T1, 5-Lipoxygenase (Rattus norvegicus, UniProt P12527); assay: ARBL: RBL-1 whole cell 5-lipoxygenase assay (inhibition of LTB4 formation); assay type: cell-based; details: RBL-1 cells, A23187 5 μM
T1 construct: host or cells: RBL-1 (rat basophilic leukemia)
T1 sequence (P12527 1-673): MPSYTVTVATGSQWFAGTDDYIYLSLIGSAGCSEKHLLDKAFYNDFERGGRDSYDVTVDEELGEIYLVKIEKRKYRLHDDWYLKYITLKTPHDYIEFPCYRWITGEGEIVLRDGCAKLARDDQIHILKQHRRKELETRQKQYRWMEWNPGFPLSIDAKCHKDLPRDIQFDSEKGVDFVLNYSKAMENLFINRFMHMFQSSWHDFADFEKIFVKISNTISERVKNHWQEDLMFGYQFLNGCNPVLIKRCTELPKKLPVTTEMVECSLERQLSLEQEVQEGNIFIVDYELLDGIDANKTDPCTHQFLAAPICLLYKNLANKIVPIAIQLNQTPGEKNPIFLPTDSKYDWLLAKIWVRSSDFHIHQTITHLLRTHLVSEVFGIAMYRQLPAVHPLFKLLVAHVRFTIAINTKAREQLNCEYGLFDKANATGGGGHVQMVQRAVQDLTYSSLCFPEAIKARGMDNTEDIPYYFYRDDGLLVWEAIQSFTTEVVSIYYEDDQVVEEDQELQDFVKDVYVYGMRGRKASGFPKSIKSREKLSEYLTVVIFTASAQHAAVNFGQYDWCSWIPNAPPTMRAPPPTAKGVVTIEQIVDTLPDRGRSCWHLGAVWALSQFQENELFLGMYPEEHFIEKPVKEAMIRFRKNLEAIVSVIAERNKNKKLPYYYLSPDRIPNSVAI
Procedure: (§1) ARBL/ARBC Whole Cell 5-Lipoxygenase and Cyclooxygenase Assays
(§2) The rat basophilic leukemia cell line (RBL-1) was obtained from the American Type Culture Collection (Rockville, Md.).
(§3) Radioimmuno assay (RIA) kits of LTB4 and PGF2α were obtained from Amersham (Arlington Heights, Ill.) and Seragen (Boston, Mass.) respectively.
RBL-1 cells are grown in suspension culture in Eagle's minimum essential medium supplemented with 12% fetal bovine serum at 37° C. in an incubator supplied with air-5% carbon dioxide. Cells are harvested by centrifugation. They are washed with cold phosphate buffered saline pH 7.4 (PBS; NaCl, 7.1 g; Na2 PO4, 1.15 g; KH2 PO4, 0.2 g; and KCl, 0.2 g/l). Cells are finally suspended in PBS containing 1.0 mM calcium at a density of 2×10^6 cells/ml. Cells are incubated with and without test agent (in DMSO) (1% DMSO is without effect on arachidonic acid metabolism) for ten minutes at room temperature. Calcium ionophore A23187 (5 μM) is added and cells are incubated for seven minutes at 37° C. The reaction is stopped by chilling the tubes on ice for ten minutes. Cells are separated by centrifugation and the supernatant is stored at -20°. Aliquots (100 μl) are analyzed for LTB4 and PGF2α using radioimmuno assay kits as provided by the supplier.

Cyclooxygenase [1] = target: T2, Cyclooxygenase (Rattus norvegicus, UniProt Q63921); assay: ARBC: RBL-1 whole cell cyclooxygenase assay (inhibition of PGF2α formation); assay type: cell-based; details: RBL-1 cells, A23187 5 μM; for % inhibition ARBC (RBL whole cell cyclooxygenase, PGF2α inhibition): @ 32 (μM); for IC50: PGF2α formation
T2 construct: host or cells: RBL-1 (rat basophilic leukemia)
T2 sequence (Q63921 27-602): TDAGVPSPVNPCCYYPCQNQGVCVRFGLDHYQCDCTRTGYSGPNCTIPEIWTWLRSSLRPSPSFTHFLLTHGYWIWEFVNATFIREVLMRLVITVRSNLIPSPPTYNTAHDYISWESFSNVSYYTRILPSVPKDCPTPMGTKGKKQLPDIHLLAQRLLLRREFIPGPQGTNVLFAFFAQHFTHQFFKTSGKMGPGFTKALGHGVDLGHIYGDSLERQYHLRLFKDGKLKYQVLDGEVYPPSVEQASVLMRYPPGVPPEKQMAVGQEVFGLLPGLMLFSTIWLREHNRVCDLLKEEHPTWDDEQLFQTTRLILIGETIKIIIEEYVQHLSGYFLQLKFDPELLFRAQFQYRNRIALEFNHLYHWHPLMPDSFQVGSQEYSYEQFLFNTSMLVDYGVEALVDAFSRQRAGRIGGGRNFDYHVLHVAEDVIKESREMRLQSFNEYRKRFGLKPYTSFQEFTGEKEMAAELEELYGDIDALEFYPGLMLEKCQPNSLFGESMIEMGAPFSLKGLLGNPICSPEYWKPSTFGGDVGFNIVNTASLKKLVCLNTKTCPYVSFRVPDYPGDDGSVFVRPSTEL
Excerpt: as §1, §2, §3
(§4) Cells are harvested by centrifugation. They are washed with cold phosphate buffered saline pH 7.4 (PBS; NaCl, 7.1 g; Na2 PO4, 1.15 g; KH2 PO4, 0.2 g; and KCl, 0.2 g/l). […] Calcium ionophore A23187 (5 μM) is added and cells are incubated for seven minutes at 37° C. The reaction is stopped by chilling the tubes on ice for ten minutes. Cells are separated by centrifugation and the supernatant is stored at -20°. Aliquots (100 μl) are analyzed for LTB4 and PGF2α using radioimmuno assay kits as provided by the supplier.

[2] = test system: Carrageenan-induced rat foot paw edema; assay: Carrageenan-induced rat foot paw edema (CFE-2) assay; assay type: in vivo; details: read-out: CFE % Inhibition @ Dose; for inhibition in vivo at 10 mg/kg: 10 mg/kg PO; for inhibition in vivo at 10 mg/kg / inhibition in vivo at 30 mg/kg: 1 h before carrageenan, edema at 5 h; for inhibition in vivo at 30 mg/kg: 30 mg/kg PO
Procedure: Carrageenan-Induced Rat Foot Paw Edema-2 (CFE-2) Assay: Protocol
Carrageenan solution (1% w/v) is prepared by dissolving 100 mg carrageenan (Marine Colloidal Div., Springfield, N.J.) in 10 ml of sterile saline (0.9%) solution (Travenol). The solution is vortexed for thirty to forty-five minutes. Animals are dosed with compound one hour before carrageenan challenge. Foot paw edema is induced by injecting 0.05 ml of the 1% carrageenan subcutaneously into the plantar portion of the right hind paw of each rat under light anesthesia. Initial foot paw volume is measured immediately following carrageenan challenge using mercury plethysmography (Buxco Electronics). Edema is measured five hours after carrageenan. The difference between the five-hour and the initial paw volume is expressed as delta edema. The delta edema for each test group of animals is used to calculate the percent inhibition of edema achieved by the compound at the test dose compared with the vehicle control group. The ID25 (the dose at which swelling is inhibited by 25%) was calculated by probit analysis for the dose at which a result of 25 percent inhibition occurs.

[3] = test system: Mycobacterium-induced rat footpad edema; assay: Mycobacterium-induced rat footpad edema (MFE) assay; assay type: in vivo; details: swelling at 72 h; for ED40: Rattus norvegicus, po, probit analysis, read-out: MFE ID40 (dose at which swelling is inhibited by 40%)
Procedure: Mycobacterium - Induced Rat Footpad Edema Assay (MFE): Protocol
Myobacterium butyricum (5 mg/ml) is suspended in paraffin oil by sonication for ten minutes in an ice bath. Footpad edema is induced on Day 0 by injecting 0.1 ml of the Mycobacterium mixture into the left hindpaw of lightly anesthetized rats. Swelling in the injected hindpaw is determined by mercury plethysmography seventy-two hours after injection. Groups of rats are treated with test compounds (suspended in 0.5% hydroxypropyl methylcellulose with 0.2% Tween-80) or vehicle one hour before Myobacterium injection and on Days 1 and 2. Inhibition of swelling is determined by comparing the change in hindpaw volume in compound- and vehicle-treated rats. An ID40 (the dose at which swelling is inhibited by 40%) was calculated by probit analysis.

[4] = Gastric ulcerogenicity (UD); assay type: in vivo, Male outbred Wistar rats; details: rat, in vivo, po
Procedure: (§5) Gastric Ulcerogenicity (UD) Protocol
(§6) Male outbred Wistar rats (100-250 gms) were fasted for twenty-four hours. After fasting, test compounds were administered orally (in 2 ml/Kg of 0.5% hydroxypropyl methylcellulose) and the rats were denied access to food and water for six more hours. The rats were then sacrificed with CO2 so that the stomachs could be removed, opened along the greater curvature, and evaluated for the presence of gastric ulcers. Results are expressed as the percent of rats with gastric ulcers at a given dose.

Cyclooxygenase [5] = assay: ARBC: RBL-1 whole cell cyclooxygenase assay (inhibition of PGF2α formation); assay type: cell-based, rat; details: ARBL/ARBC IC50; >1.0 cyclooxygenase selective, <1.0 5-lipoxygenase selective
Excerpt: as §1, §2, §3, §4

gastric ulcers in rats = assay: Gastric ulcerogenicity (UD); assay type: in vivo, Male outbred Wistar rats; details: 100 mg/kg PO, fasted rats, 6 h
Procedure: as §5, §6

IC50 (5-Lipoxygenase) [nM]	% inhibition ARBC (RBL whole cell cyclooxygenase, PGF2α inhibition) (Cyclooxygenase [1]) [%]	SMILES	inhibition in vivo at 10 mg/kg [2] [%]	ED40 [3] [mg/kg]	inhibition in vivo at 30 mg/kg [2] [%]	further results
26400	0	CONC(=O)CC1=C(C)/C(=C/c2ccc([S+](C)[O-])cc2)c2ccc(F)cc21 (stereo not drawn) [Example 2, (Z)-6-fluoro-N-methoxy-2-methyl-3-[[4-(methylsulfinyl)phenyl]methylene]-3H-indene-1-acetamide]				
900		COc1ccc2c(c1)c(CC(=O)N(O)C(C)C)c(C)n2C(=O)c1ccc(Cl)cc1 [Example 5, 1-(4-Chlorobenzoyl)-N-hydroxy-5-methoxy-2-methyl-N-(1-methylethyl)-1H-indole-3-acetamide]	27	0.82		
1000	0	CC1=C(CC(=O)N(C)O)c2cc(F)ccc2/C1=C\c1ccc([S+](C)[O-])cc1 (stereo not drawn) [Example 1, (Z)-6-fluoro-N-hydroxy-N,2-dimethyl-3-[[4-(methylsulfinyl)phenyl]methylene]-3H-indene-1-acetamide]			15	MFE % Inhibition @ Dose ([3]; 10 mg/kg PO): 30%
1400		COc1ccc2c(c1)c(CC(=O)N(C)O)c(C)n2C(=O)c1ccc(Cl)cc1 [Example 3, 1-(4-Chlorobenzoyl)-N-hydroxy-5-methoxy-N,2-dimethyl-1H-indole-3-acetamide]	29	< 2		percent of rats with gastric ulcers at a given dose (UD50 column) (gastric ulcers in rats): 10%

Second part, the molecule before the results:

SMILES	IC50 (5-Lipoxygenase) [nM]	% inhibition ARBC (RBL whole cell cyclooxygenase, PGF2α inhibition) (Cyclooxygenase [1]) [%]	inhibition in vivo at 10 mg/kg [2] [%]	ED40 [3] [mg/kg]	inhibition in vivo at 30 mg/kg [2] [%]	further results
COc1ccc2c(c1)c(CC(=O)NO)c(C)n2C(=O)c1ccc(Cl)cc1 [Oxametacin, reference compound]	7500				46	TD50 at 6 h [4]: 103 mg/kg
CC1=C(CC(=O)NO)c2cc(F)ccc2/C1=C\c1ccc([S+](C)[O-])cc1 (stereo not drawn) [Example 2A, (Z)-6-fluoro-N-hydroxy-2-methyl-3-[[4-(methylsulfinyl)phenYl]methylene]-3H-indene-1-acetamide]	12900	0			31	MFE % Inhibition @ Dose ([3]; 50 mg/kg PO): 53%
COc1ccc2c(c1)c(CC(=O)O)c(C)n2C(=O)c1ccc(Cl)cc1 [Indomethacin, 1(p-chlorobenzoyl)-5-methoxy-2-methylindole-3-acetic acid, reference compound]	> 100000			0.21		inhibition in vivo at 5 mg/kg ([2]; po, 5 h): 36%
CONC(=O)Cc1c(C)n(C(=O)c2ccc(Cl)cc2)c2ccc(OC)cc12 [Example 4, 1-(4-Chlorobenzoyl)-N,5-dimethoxy-2-methyl-1H-indole-3-acetamide]	24000		40			TD50 at 6 h [4]: 42 mg/kg; IC50 (Cyclooxygenase [1]): 200 nM; RATIO, selectivity of inhibition (Cyclooxygenase [5]): 120
COc1ccc2c(c1)c(CC(=O)N(O)C1CCCCC1)c(C)n2C(=O)c1ccc(Cl)cc1 [Example 6, 1-(4-Chlorobenzoyl)-N-cyclohexyl-N-hydroxy-5-methoxy-2-methyl-1H-indole-3-acetamide]	1600		22	4.7		IC50 (Cyclooxygenase [1]): 100 nM; RATIO, selectivity of inhibition (Cyclooxygenase [5]): 16.0
